The test system of series [1] is rat myoblast cell line H9c2. In words: Cell viability assay (WST-8), H9c2. The following applies: control (0 μM) = 100. The format is cell-based. As to the method: (§1) A WST-8 (2-(2-methoxy-4-nitrophenyl)-3-(4-nitrophenyl)-5-(2,4-disulfophenyl)-2H-tetrazolium) assay using a Cell Counting Kit-8 (DOJINDO) was performed to measure cell viability using an EnSpire microplate reader (PerkinElmer).
On the technique in general: Tetrazolium dyes change colour on reduction, which living cells bring about.

Another series relates to HUDEP-2 cells. Nature of the series: Cell viability assay (WST-8), HUDEP-2. The format is cell-based, human. The following applies: control (0 μM) = 100. As to the method: as §1
The next series concerns mice. In words: Mouse acute toxicity assay, survival. Type of series: in vivo. The following applies: intravenous, 2-week observation. As to the method: All animal studies were approved by the Institutional Committee for Animal Experiments of the Institute of Microbial Chemistry, and were performed in accordance with relevant guidelines and regulations to minimize animal suffering. Four-week-old female ICR mice were purchased from Charles River Breeding Laboratories (Yokohama, Japan) and maintained in a specific pathogen-free barrier facility. […] Samples were dissolved in saline containing 10% DMSO and 1% Tween 80 and injected intravenously into mice.

The test system of series [2] is Salmonella typhimurium TA100. In words: Ames test, TA100. The protocol: (§2) The Salmonella mutagenicity assay was performed by pre-incubating the test compounds for 20 min with Salmonella typhimurium strains TA98 and TA100, with and without metabolic activation (S9 mixture).
(§3) After this time 2 mL of top agar was added to the mixture and poured on to a plate containing minimum agar. The plates were incubated at 37 °C for 49 h and the His ± revertant colonies were counted manually and automatically by a colony counter (Colony analyzer CA-11D systems, System science Co.,Ltd.). The influence of metabolic activation was tested by adding 500 μL of 10% S9 mixture. All experiments were performed in duplicate. […] DMSO served as the negative control (100 μL/plate). The mutagenic index (MI, the average number of revertants per plate divided by the average number of revertants per plate from the negative control) was also calculated for each dose. A sample was considered positive when the MI was equal to or greater than 2 for at least one of the tested doses.

Series [3] concerns Salmonella typhimurium TA98. In words: Ames test, TA98. The protocol: as §2, §3
Background: The Ames test uses bacterial strains that need an amino acid and regain growth without it when mutated back.

Series [4] has as its system BGLT3 RNA in HUDEP-2 cells. Nature of the series: RT-qPCR of BGLT3 in HUDEP-2 cells. Type of series: cell-based, human. The following applies: relative to DMSO = 1, replicate values; for BGLT3 expression in HUDEP-2 cells: Sup.Fig.11a. As to the method:
(§4) Total cellular RNA was prepared using the Tissue Total RNA Mini Kit (FAVORGEN), and cDNA was synthesized using ReverTra Ace Master Mix (TOYOBO). Expression of target genes was analyzed using THUNDERBIRD SYBR qPCR Mix (TOYOBO) on a CFX Connect Real Time System (Bio-Rad). The qPCR data were acquired on CFX Maestro (Bio-Rad). Primers are listed in Supplementary Table 10. GAPDH was used as a reference. Primers were purchased from INTEGRATED DNA TECHNOLOGIES or FASMAC.

In series [5] the test system is BGLT3-knockdown HUDEP-2 cells. Nature of the series: RT-qPCR of BGLT3, β- and γ-globin in BGLT3-knockdown HUDEP-2 cells. The following applies: 1 μM, relative to shctrl DMSO = 1, replicate values. Type of series: cell-based, human. As to the method:
as §4
Retroviral infection was used as previously described to establish cell lines stably expressing BGLT3 and transfected with the pCX4-pur vector, as well as knockdown cell lines transfected with the pSUPER vector[58]. Briefly, retroviruses were produced by transfecting PLAT-E cells with pCX4-pur-BGLT3 or pSUPER-ctrl, pSUPER-BGLT3, or pSUPER-G9a using 5 μg/mL polyethylenimine MAX (PEI MAX, Polysciences). Two days after transfection, the culture supernatant was collected and filtered through a 0.45-μm filter (Millipore) and used for infection with 8 μg/mL polybrene (Sigma). Forty-eight hours after infection, the infected cells were selected with 0.2 μg/mL puromycin (InvivoGen). The clonal puromycin-resistant cells were established via limiting dilution. The desired clones were confirmed by western blotting or qPCR.

The target in a further series is T1, G9a (Homo sapiens, UniProt Q96KQ7).
T1 sequence (Q96KQ7 1-1210): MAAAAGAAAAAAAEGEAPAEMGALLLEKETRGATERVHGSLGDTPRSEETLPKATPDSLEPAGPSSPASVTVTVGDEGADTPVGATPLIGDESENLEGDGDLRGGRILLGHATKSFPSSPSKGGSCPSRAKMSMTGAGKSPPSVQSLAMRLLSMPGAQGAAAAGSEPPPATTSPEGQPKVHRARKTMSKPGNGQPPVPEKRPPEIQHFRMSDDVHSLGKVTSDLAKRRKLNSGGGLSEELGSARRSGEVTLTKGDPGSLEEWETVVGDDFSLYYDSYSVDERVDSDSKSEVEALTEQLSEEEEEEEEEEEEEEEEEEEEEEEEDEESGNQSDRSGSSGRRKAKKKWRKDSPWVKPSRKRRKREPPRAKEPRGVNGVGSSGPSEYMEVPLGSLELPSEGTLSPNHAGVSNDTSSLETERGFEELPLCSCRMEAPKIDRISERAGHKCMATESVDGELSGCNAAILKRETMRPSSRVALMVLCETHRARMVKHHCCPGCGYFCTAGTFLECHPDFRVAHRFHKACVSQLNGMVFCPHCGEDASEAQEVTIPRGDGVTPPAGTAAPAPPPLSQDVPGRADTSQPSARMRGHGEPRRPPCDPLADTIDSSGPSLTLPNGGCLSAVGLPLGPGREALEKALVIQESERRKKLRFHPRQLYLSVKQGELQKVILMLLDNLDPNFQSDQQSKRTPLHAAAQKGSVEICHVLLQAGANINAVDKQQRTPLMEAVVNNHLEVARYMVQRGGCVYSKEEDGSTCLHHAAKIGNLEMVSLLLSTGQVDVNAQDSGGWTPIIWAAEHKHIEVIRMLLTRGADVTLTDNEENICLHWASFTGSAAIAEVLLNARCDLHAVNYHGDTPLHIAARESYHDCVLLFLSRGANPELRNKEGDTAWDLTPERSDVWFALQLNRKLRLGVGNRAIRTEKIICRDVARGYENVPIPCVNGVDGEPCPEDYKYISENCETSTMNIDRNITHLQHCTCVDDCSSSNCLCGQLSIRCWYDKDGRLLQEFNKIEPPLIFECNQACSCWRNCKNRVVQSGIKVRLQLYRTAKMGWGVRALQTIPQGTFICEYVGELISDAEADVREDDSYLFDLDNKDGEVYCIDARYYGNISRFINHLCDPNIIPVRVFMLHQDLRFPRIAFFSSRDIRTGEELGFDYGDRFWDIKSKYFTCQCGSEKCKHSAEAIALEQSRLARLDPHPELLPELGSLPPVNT
In words: In vitro G9a methyltransferase assay (AlphaLISA-based). Type of series: biochemical. Also noted: purchased BPS Bioscience. As to the method: An amplified luminescence proximity homogeneous assay (ALPHA) was performed with a modified version of a previously described method. Recombinant G9a proteins (BPS Bioscience) were incubated with 15 μM S-adenosyl-methionine (Sigma) and 50 nM biotinylated histone H3 (1-21; AnaSpec) in the assay buffer (50 mM Tris-HCl (pH 9.0), 50 mM NaCl, 0.01% Tween-20, and 1 mM DTT). After incubation at room temperature for 1 h, AlphaLISA anti-H3K9me2 acceptor beads (final concentration 10 μg/mL, PerkinElmer, AL117C) and AlphaScreen streptavidin donor beads (final concentration 10 μg/mL, PerkinElmer, 6760002B) were added and incubated for an additional 1 h prior to detection of the alpha signal with an EnSpire Alpha plate reader (PerkinElmer). ALPHA profile was analyzed using Origin (OriginLab).
On the technique in general: In Alpha technology, singlet oxygen from a donor bead excites a nearby acceptor bead.

Series [6] deals with β- and γ-globin genes in HUDEP-2 cells. In words: RT-qPCR of β- and γ-globin in HUDEP-2 cells. The format is cell-based, human. Conditions: single agents or combination; relative to DMSO = 1; replicate values. As to the method: as §4
Where [7] appears, read: G9a activity, AlphaLISA-based assay, mean of three experiments.
Where [8] appears, read: Sup.Table1, three replicate values.

Where “and” joins values, the source holds several entries; their conditions need not be identical. Equal entries are not always repeated.

As for `COc1cc2c(cc1OCCCN1CCCC1)N=C(N)C21CCC1` [A-366], the “cell viability in H9c2 cells” value in series [1] (0.039 μM) was 104.360 and 99.467 and 89.907; in series [1] (0.156 μM), 95.640 and 83.067 and 81.211; in series [1] (0.625 μM), 92.264 and 78.533 and 78.882; in series [1] (2.5 μM), 78.059 and 64.000 and 71.429; in [1] (10.0 μM) it was 53.868 and 49.733 and 52.329. For the same compound, the “cell viability in HUDEP-2 cells” value was 82.0673 and 97.2549 and 93.6968 in the series on HUDEP-2 cells (0.00457247 μM); 88.332 and 96 and 98.8075 with HUDEP-2 cells (0.0137174 μM); 83.007 and 93.4902 and 87.9046 with HUDEP-2 cells (0.0411523 μM); 84.5732 and 96 and 89.6082 in the series with HUDEP-2 cells (0.123457 μM); 79.2482 and 92.549 and 93.6968 in the series on HUDEP-2 cells (0.37037 μM); 81.1276 and 90.6667 and 88.586 in the series with HUDEP-2 cells (1.11111 μM). For the same compound, the “cell viability in HUDEP-2 cells” value in the series on HUDEP-2 cells (3.33333 μM) is 67.9718 and 80.3137 and 66.7802; in the series on HUDEP-2 cells (10 μM), 52.3101 and 64.9412 and 58.9438. Also, the “Number of alive mice” value is 3/3 in the series with mice (0.1953125 mg/kg); 3/3 with mice (0.390625 mg/kg); 3/3 with mice (0.78125 mg/kg); 0/3 in the series with mice (1.5625 mg/kg); 0/3 in the series with mice (3.125 mg/kg).

For `NC(=O)C(=Cc1ccc([N+](=O)[O-])o1)c1ccco1` [AF-2, 2-(2-furyl)-3-(5-nitro-2-furyl)acrylamide, reference compound], the Number of reverants/plate was 725 and 728 in series [2] (TA100, - S9, base pair substitution mutation, 0.01 μg/plate); 497 and 507 in [3] (TA98, - S9, frameshift mutation, 0.1 μg/plate). For the same compound, the Number of revertants/plate turned out to be 727 in [2] (TA100, -S9, 0.01 μg/plate, positive control) and 502 in [3] (TA98, -S9, 0.1 μg/plate, positive control).

For `Nc1ccccc1NC(=O)c1ccc(CNC(=O)OCc2cccnc2)cc1` [MS-275], the “BGLT3 expression in HUDEP-2 cells” value in series [4] is 14.3147 and 21.8274 and 19.7082. Further, the “β-globin gene in BGLT3-knockdown HUDEP-2 cells” value is 3.1513 and 3.12 and 3.5502 in [5] (shBGLT3 #1); 2.766 and 2.148 and 2.288 in [5] (shBGLT3 #2); 1.145 and 1.259 and 1.535 in series [5] (shBGLT3 #3); 4.7699 and 6.2041 and 4.688 in series [5] (shctrl). In addition, the “γ-globin gene in BGLT3-knockdown HUDEP-2 cells” value in series [5] (shBGLT3 #1) is 20.155 and 19.0925 and 20.8632; in [5] (shBGLT3 #2), 8.523 and 7.607 and 25.7598; in [5] (shBGLT3 #3), 19.0595 and 19.9736 and 20.0664; in [5] (shctrl) it was 47.2575 and 62.7038 and 44.6998.

Regarding `COC(=O)c1ccc2nc([C@H](CCSC)NC(=O)c3[nH]c4c(c3C)C(=O)CC(C)(C)C4)[nH]c2c1` [compound 8], the IC50 (in general, the concentration at which inhibition is half-maximal) is 21.3 µM at G9a (setting [7]); 24.6 µM and 20.7 µM and 18.7 µM against G9a (setting [8]).

As for `CSCC[C@H](NC(=O)c1[nH]c2c(c1C)C(=O)CC(C)(C)C2)C(=O)Nc1ccccc1` [compound 9], the half-inhibitory concentration (IC50) is 0.3 µM against G9a (setting [7]); 0.299 µM and 0.291 µM and 0.316 µM against G9a (setting [8]).

For the compound `Nc1ncn([C@H]2C[C@H](O)[C@@H](CO)O2)c(=O)n1` [decitabine], the “β-globin expression in HUDEP-2 cells treated with RK-701 and decitabine” value in series [6] is 0.9105 and 1.679 and 1.802. In addition, the “γ-globin expression in HUDEP-2 cells treated with RK-701 and decitabine” value in [6] was 5.299 and 8.189 and 8.892. For the same compound, the “BGLT3 expression in HUDEP-2 cells” value in [4] is 2.269 and 2.6404 and 2.1358. In [4] (single agents or combination), the “BGLT3 expression in HUDEP-2 cells treated with RK-701 and decitabine” value was 3.3143 and 2.772 and 4.351. The “β-globin gene in BGLT3-knockdown HUDEP-2 cells” value is 0.735 and 0.7829 and 0.8722 in series [5] (shBGLT3 #1); 0.6218 and 0.5853 and 0.4869 in series [5] (shBGLT3 #2); 0.8092 and 0.8421 and 1.086 in series [5] (shBGLT3 #3); 0.8786 and 0.8917 and 0.7285 in series [5] (shctrl). Further, the “γ-globin gene in BGLT3-knockdown HUDEP-2 cells” value in series [5] (shBGLT3 #1) is 2.413 and 2.581 and 2.465; in series [5] (shBGLT3 #2) it was 2.574 and 2.659 and 3.171; in series [5] (shBGLT3 #3) it was 1.425 and 1.467 and 1.465; in series [5] (shctrl), 8.583 and 10.749 and 7.48.

(Values after paper PMC9837035 (Nature Communications, 2023).)
